Measured values as given in ChEMBL document CHEMBL1914286, “Design, structure-activity relationship, and highly efficient asymmetric synthesis of 3-phenyl-4-benzylaminopiperidine derivatives as novel neurokinin-1 receptor antagonists” (Bioorg Med Chem, 2011).

How the values were obtained:
Cavia porcellus [1] = test: Antagonist activity at NK1 receptor in po dosed Hartley guinea pig assessed as inhibition of GR73632-induced hypermotility measured after 0.75 hrs; format: functional; conditions: for ED50: Cavia porcellus, Hartley, po, 0.75 h, read-out: ID50 (the source's name)
Liver microsomes = conditions: human, 1 µM
Description: (§1) Metabolic stability in human liver microsomes at 1 uM

Substance-P receptor = Substance-P receptor (Homo sapiens, UniProt P25103); test: biochemical
Sequence of Substance-P receptor (P25103 whole entry): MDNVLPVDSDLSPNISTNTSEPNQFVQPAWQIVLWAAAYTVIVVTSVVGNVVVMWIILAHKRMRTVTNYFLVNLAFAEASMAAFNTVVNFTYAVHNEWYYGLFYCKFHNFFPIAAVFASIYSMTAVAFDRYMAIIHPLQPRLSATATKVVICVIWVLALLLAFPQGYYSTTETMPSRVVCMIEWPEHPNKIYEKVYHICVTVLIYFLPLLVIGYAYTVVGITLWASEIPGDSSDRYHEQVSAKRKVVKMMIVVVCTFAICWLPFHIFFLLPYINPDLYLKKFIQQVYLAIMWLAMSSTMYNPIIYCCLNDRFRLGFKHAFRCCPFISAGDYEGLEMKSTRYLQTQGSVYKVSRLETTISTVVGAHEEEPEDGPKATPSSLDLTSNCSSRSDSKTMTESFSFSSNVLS
Description: Displacement of [125I]BH-SP from NK1 receptor in human IM9 cells after 30 mins by scintillation counting

Cavia porcellus [2] = species on record: Cavia porcellus; test: animal or person; conditions: Hartley, po, 0.75 h, read-out: INH
in vitro = conditions: human, liver microsomes, Stability
Description: as §1

physchem = conditions: buffer, pH 7.4
Description: Lipophilicity, log D of the compound at pH 7.4

**Q.** Which ID50 (Cavia porcellus [1]) does the source give for `COc1ccc(-n2nnnc2C(F)(F)F)cc1CN[C@H]1CCN(C(=O)CNC(C)=O)C[C@H]1c1ccccc1` here?
**A.** Its ID50 is 0.066 mg/kg.

**Q.** And the Stability (Liver microsomes)?
**A.** Its Stability is 8 µL/min/mg.

**Q.** With `COc1ccc(-n2nnnc2C(F)(F)F)cc1CN[C@@H]1CCN(C(=O)CNC(C)=O)C[C@@H]1c1ccccc1` as the compound, how does the IC50 (Substance-P receptor) read?
**A.** Its IC50 is > 100 nM.

**Q.** Which IC50 (Substance-P receptor) does the source give for `CCN1CC[C@H](NCc2cc(OC(F)(F)F)ccc2OC)[C@H](c2ccccc2)C1` (racemic) here?
**A.** Its IC50 is 4.8 nM.

**Q.** With `COc1ccc(OC(F)(F)F)cc1CN[C@H]1CCN(S(C)(=O)=O)C[C@H]1c1ccccc1` (racemic) as the compound, how does the IC50 (Substance-P receptor) read?
**A.** Its IC50 is 1.2 nM.

**Q.** Which IC50 (Substance-P receptor) does the source give for `COC(=O)N1CC[C@H](NCc2cc(OC(F)(F)F)ccc2OC)[C@H](c2ccccc2)C1` (racemic) here?
**A.** The IC50 was 0.31 nM.

**Q.** With `COc1ccc(OC(F)(F)F)cc1CN[C@H]1CCN(C(C)=O)C[C@H]1c1ccccc1` (racemic) as the compound, how does the IC50 (Substance-P receptor) read?
**A.** Its IC50 is 0.16 nM.

**Q.** With `CCNC(=O)N1CC[C@H](NCc2cc(OC(F)(F)F)ccc2OC)[C@H](c2ccccc2)C1` (racemic) as the compound, how does the IC50 (Substance-P receptor) read?
**A.** Its IC50 is 0.17 nM.

**Q.** With `CCNC(=O)N1CC[C@@H](NCc2cc(OC(F)(F)F)ccc2OC)[C@H](c2ccccc2)C1` (racemic) as the compound, how does the IC50 (Substance-P receptor) read?
**A.** Its IC50 is 3.7 nM.

**Q.** With `CCN1CC[C@H](NCc2cc(-n3nnnc3C(F)(F)F)ccc2OC)[C@H](c2ccccc2)C1` (racemic) as the compound, how does the IC50 (Substance-P receptor) read?
**A.** The IC50 was 1.9 nM.

**Q.** Which IC50 (Substance-P receptor) does the source give for `COc1ccc(-n2nnnc2C(F)(F)F)cc1CN[C@H]1CCN(S(C)(=O)=O)C[C@H]1c1ccccc1` (racemic) here?
**A.** The IC50 was 0.075 nM.

**Q.** And the inhibition in vivo at 1 mg/kg (Cavia porcellus [2])?
**A.** Its inhibition in vivo at 1 mg/kg is 18%.

**Q.** And the microsomal CLint at 1 µM (in vitro)?
**A.** The microsomal CLint at 1 µM was 144 µL/min/mg.

**Q.** What does the source list for `COC(=O)N1CC[C@H](NCc2cc(-n3nnnc3C(F)(F)F)ccc2OC)[C@H](c2ccccc2)C1` (racemic)?
**A.** IC50 (Substance-P receptor): 0.054 nM; inhibition in vivo at 1 mg/kg (Cavia porcellus [2]): 65%; microsomal CLint at 1 µM (in vitro): 199 µL/min/mg

**Q.** What does the source list for `COc1ccc(-n2nnnc2C(F)(F)F)cc1CN[C@H]1CCN(C(C)=O)C[C@H]1c1ccccc1.Cl` (racemic)?
**A.** IC50 (Substance-P receptor): 0.049 nM; ED50 (Cavia porcellus [1]): 0.2 mg/kg; inhibition in vivo at 1 mg/kg (Cavia porcellus [2]): 82%; logD (physchem): 2.69; microsomal CLint at 1 µM (in vitro): 111 µL/min/mg

**Q.** What does the source list for `CCNC(=O)N1CC[C@H](NCc2cc(-n3nnnc3C(F)(F)F)ccc2OC)[C@H](c2ccccc2)C1.Cl` (racemic)?
**A.** IC50 (Substance-P receptor): 0.039 nM; ED50 (Cavia porcellus [1]): 0.37 mg/kg; inhibition in vivo at 1 mg/kg (Cavia porcellus [2]): 70%; logD (physchem): 2.79; microsomal CLint at 1 µM (in vitro): 159 µL/min/mg

**Q.** Which IC50 (Substance-P receptor) does the source give for `CCNC(=O)N1CC[C@H](NCc2cc(-n3nnnc3C(F)(F)F)ccc2OCC)[C@H](c2ccccc2)C1` (racemic) here?
**A.** The IC50 was 0.086 nM.

**Q.** What about the inhibition in vivo at 1 mg/kg (Cavia porcellus [2]) of the same compound?
**A.** The inhibition in vivo at 1 mg/kg was 35%.

**Q.** And the microsomal CLint at 1 µM (in vitro)?
**A.** The microsomal CLint at 1 µM was 218 µL/min/mg.

**Q.** With `CCNC(=O)N1CC[C@H](NCc2cc(-n3nnnc3C(F)(F)F)ccc2OC2CC2)[C@H](c2ccccc2)C1` (racemic) as the compound, how does the IC50 (Substance-P receptor) read?
**A.** The IC50 was 0.044 nM.

**Q.** And the inhibition in vivo at 1 mg/kg (Cavia porcellus [2])?
**A.** The inhibition in vivo at 1 mg/kg was 94%.

**Q.** What about the microsomal CLint at 1 µM (in vitro) of the same compound?
**A.** Its microsomal CLint at 1 µM is 217 µL/min/mg.

**Q.** What does the source list for `CCNC(=O)N1CC[C@H](NCc2cc(-n3nnnc3C(F)(F)F)cc3c2OCC3)[C@H](c2ccccc2)C1` (racemic)?
**A.** IC50 (Substance-P receptor): 0.093 nM; inhibition in vivo at 1 mg/kg (Cavia porcellus [2]): 57%; microsomal CLint at 1 µM (in vitro): 160 µL/min/mg

**Q.** Which results are given for `COc1ccc(-n2nnnc2C(F)(F)F)cc1CN[C@H]1CCN(C(=O)NC(C)C)C[C@H]1c1ccccc1` (racemic)?
**A.** IC50 (Substance-P receptor): 0.081 nM; inhibition in vivo at 1 mg/kg (Cavia porcellus [2]): 66%; logD (physchem): 3.09; microsomal CLint at 1 µM (in vitro): 167 µL/min/mg

**Q.** For `COc1ccc(-n2nnnc2C(F)(F)F)cc1CN[C@H]1CCN(C(=O)NCC(F)(F)F)C[C@H]1c1ccccc1` (racemic), which IC50 (Substance-P receptor) is on record?
**A.** The IC50 was 0.057 nM.

**Q.** And the inhibition in vivo at 1 mg/kg (Cavia porcellus [2])?
**A.** The inhibition in vivo at 1 mg/kg was 65%.

**Q.** And the logD (physchem)?
**A.** Its logD is 3.03.

**Q.** What about the microsomal CLint at 1 µM (in vitro) of the same compound?
**A.** Its microsomal CLint at 1 µM is 155 µL/min/mg.

**Q.** For `COc1ccc(-n2nnnc2C(F)(F)F)cc1CN[C@H]1CCN(C(=O)N(C)C)C[C@H]1c1ccccc1` (racemic), which IC50 (Substance-P receptor) is on record?
**A.** The IC50 was 0.13 nM.

**Q.** What about the inhibition in vivo at 1 mg/kg (Cavia porcellus [2]) of the same compound?
**A.** The inhibition in vivo at 1 mg/kg was 90%.

**Q.** What about the logD (physchem) of the same compound?
**A.** The logD was 3.18.

**Q.** What about the microsomal CLint at 1 µM (in vitro) of the same compound?
**A.** The microsomal CLint at 1 µM was 213 µL/min/mg.

**Q.** For `COc1ccc(-n2nnnc2C(F)(F)F)cc1CN[C@H]1CCN(C(=O)C2CN(C(C)=O)C2)C[C@H]1c1ccccc1` (racemic), which IC50 (Substance-P receptor) is on record?
**A.** Its IC50 is 0.057 nM.

**Q.** What about the inhibition in vivo at 1 mg/kg (Cavia porcellus [2]) of the same compound?
**A.** The inhibition in vivo at 1 mg/kg was 32%.

**Q.** What about the logD (physchem) of the same compound?
**A.** The logD was 2.31.

**Q.** What about the microsomal CLint at 1 µM (in vitro) of the same compound?
**A.** Its microsomal CLint at 1 µM is 27 µL/min/mg.

**Q.** With `COc1ccc(-n2nnnc2C(F)(F)F)cc1CN[C@H]1CCN(C(=O)C2CCN(C(C)=O)CC2)C[C@H]1c1ccccc1.Cl` (racemic) as the compound, how does the IC50 (Substance-P receptor) read?
**A.** Its IC50 is 0.1 nM.

**Q.** What about the ED50 (Cavia porcellus [1]) of the same compound?
**A.** Its ED50 is 0.33 mg/kg.

**Q.** And the inhibition in vivo at 1 mg/kg (Cavia porcellus [2])?
**A.** Its inhibition in vivo at 1 mg/kg is 85%.

**Q.** And the logD (physchem)?
**A.** Its logD is 2.51.

**Q.** What about the microsomal CLint at 1 µM (in vitro) of the same compound?
**A.** The microsomal CLint at 1 µM was 76 µL/min/mg.

**Q.** Which IC50 (Substance-P receptor) does the source give for `COc1ccc(-n2nnnc2C(F)(F)F)cc1CN[C@H]1CCN(C(=O)CNC(C)=O)C[C@H]1c1ccccc1` (racemic) here?
**A.** The IC50 was 0.073 nM.

**Q.** And the ID50 (Cavia porcellus [1])?
**A.** Its ID50 is 0.26 mg/kg.

**Q.** What about the inhibition in vivo at 1 mg/kg (Cavia porcellus [2]) of the same compound?
**A.** The inhibition in vivo at 1 mg/kg was 99%.

**Q.** What about the Stability (Liver microsomes) of the same compound?
**A.** Its Stability is 32 µL/min/mg.

**Q.** What about the logD (physchem) of the same compound?
**A.** Its logD is 2.28.

**Q.** With `COc1ccc(-n2nnnc2C(F)(F)F)cc1CN[C@H]1CCN(C(=O)CCNC(C)=O)C[C@H]1c1ccccc1.Cl` (racemic) as the compound, how does the IC50 (Substance-P receptor) read?
**A.** The IC50 was 0.054 nM.

**Q.** What about the ED50 (Cavia porcellus [1]) of the same compound?
**A.** The ED50 was 0.34 mg/kg.

**Q.** And the inhibition in vivo at 1 mg/kg (Cavia porcellus [2])?
**A.** Its inhibition in vivo at 1 mg/kg is 79%.

**Q.** And the logD (physchem)?
**A.** Its logD is 2.35.

**Q.** And the microsomal CLint at 1 µM (in vitro)?
**A.** Its microsomal CLint at 1 µM is 95 µL/min/mg.

**Q.** Which IC50 (Substance-P receptor) does the source give for `COc1ccc(-n2nnnc2C(F)(F)F)cc1CN[C@H]1CCN(C(=O)CCCNC(C)=O)C[C@H]1c1ccccc1` (racemic) here?
**A.** Its IC50 is 0.025 nM.

**Q.** What about the logD (physchem) of the same compound?
**A.** The logD was 2.43.

**Q.** What about the microsomal CLint at 1 µM (in vitro) of the same compound?
**A.** The microsomal CLint at 1 µM was 146 µL/min/mg.

**Q.** Which results are given for `COc1ccc(-n2nnnc2C(F)(F)F)cc1CN[C@H]1CCN(C(=O)CN(C)C(C)=O)C[C@H]1c1ccccc1` (racemic)?
**A.** IC50 (Substance-P receptor): 0.084 nM; inhibition in vivo at 1 mg/kg (Cavia porcellus [2]): 74%; logD (physchem): 2.31; microsomal CLint at 1 µM (in vitro): 73 µL/min/mg

**Q.** With `COc1ccc(-n2nnnc2C(F)(F)F)cc1CN[C@@H]1CCN(C(=O)CNC(C)=O)C[C@H]1c1ccccc1` (racemic) as the compound, how does the IC50 (Substance-P receptor) read?
**A.** Its IC50 is 0.2 nM.

**Q.** What about the microsomal CLint at 1 µM (in vitro) of the same compound?
**A.** The microsomal CLint at 1 µM was 34 µL/min/mg.

**Q.** With `COc1ccc(-n2nnnc2C(F)(F)F)cc1CN[C@H]1CCNC[C@H]1c1ccccc1` (racemic) as the compound, how does the IC50 (Substance-P receptor) read?
**A.** The IC50 was 1.4 nM.

**Q.** For `COc1ccc(OC(F)(F)F)cc1CN[C@H]1CCNC[C@H]1c1ccccc1` (racemic), which IC50 (Substance-P receptor) is on record?
**A.** The IC50 was 8.4 nM.
